# Measurements: patent US8927300B2, “Method and compositions for the detection of protein glycosylation” (California Institute of Technology, priority 2003, dated 2015)
# Positions count from the first letter of the chain named. Entries after “also recorded” stand apart in the source; their conditions may differ.
# T1: Y289L GalT (Bos taurus, UniProt P08037, Y289L)
# T1 construct: made in house
# T1 sequence (P08037 1-402 Y289L): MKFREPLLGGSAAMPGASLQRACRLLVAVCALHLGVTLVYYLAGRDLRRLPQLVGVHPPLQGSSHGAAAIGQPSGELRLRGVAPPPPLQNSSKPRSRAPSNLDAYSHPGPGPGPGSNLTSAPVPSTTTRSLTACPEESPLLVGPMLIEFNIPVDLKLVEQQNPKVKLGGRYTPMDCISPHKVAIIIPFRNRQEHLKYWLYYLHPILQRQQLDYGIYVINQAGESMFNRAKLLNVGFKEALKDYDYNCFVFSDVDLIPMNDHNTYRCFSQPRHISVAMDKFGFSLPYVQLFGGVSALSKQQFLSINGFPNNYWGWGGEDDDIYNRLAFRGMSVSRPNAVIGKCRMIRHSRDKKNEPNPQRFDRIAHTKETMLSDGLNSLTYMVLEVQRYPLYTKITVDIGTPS
# T2: GalT (Bos taurus, UniProt P08037)
# T2 sequence (P08037 1-402): T1 sequence (P08037 1-402 Y289L) with L289Y
# B1: WGA: wheat-germ agglutinin lectin, existing method to detect GlcNAc (protein)
# chain: QRCGEQGSNMECPNNLCCSQYGYCGMGGDYCGKGCQNGACWTSKRCGSQAGGATCTNNQCCSQYGYCGFGAEYCGAGCQGGPCRADIKCGSQAGGKLCPNNLCCSQWGFCGLGSEFCGGGCQSGACSTDKPCGKDAGGRVCTNNYCCSKWGSCGIGPGYCGAGCQSGGCDG
# Tests used:
# Y289L GalT = biological target: T1, Y289L GalT; experiment: Transfer of keto-sugar from labeling agent 1 to O-GlcNAc peptide by Y289L mutant GalT, LC-MS; format: biochemical; conditions: peptide TAPTS(O-GlcNAc)TIAPG, 6 h at 4° C., diammonium salt
# Description: The peptide TAPTS(O-GlcNAc)TIAPG (SEQ ID NO: 1) (10 μM) was dissolved in 25 mM MOPS buffer, pH 6.7 containing 5 mM MnCl2 and 8 μM reference peptide (ThermoFinnigan, San Jose, Calif.). Labeling agent 1 and mutant Y289L GalT were added to final concentrations of 1 mM and 100 ng/μL, respectively. Prior to enzyme addition, an aliquot of the—reaction was removed as an initial time point for LC-MS analysis. Reactions were incubated at 4° C. for 6 h, after which an aliquot of the reaction mixture was removed for product analysis by LC-MS. The remainder of the reaction was diluted 5-fold into PBS (final concentration: 10.1 mM Na2HPO4, 1.76 mM KH2HPO4, […], 2.7 mM KCl, pH 6.7), and N-(aminooxyacetyl)-N′-(D-biotinoyl) hydrazine (Molecular Probes, Eugene, Oreg.) was added to a final concentration of 12 mM. After 8 h at 25° C., the extent of biotin-oxime product was measured by LC-MS. […] Labeling reactions with wild-type GalT were performed identically, with the exception that reactions were incubated at 37° C. for 12 h. […]
# Base peak chromatograms are shown before and 6 h after the addition of ketone analogue 1 and Y289L GalT. […] For reaction with detection agent aminooxy biotin, formation of the oxime product was monitored using an extracted ion chromatogram within the mass range 1319.0-1321.0 m/z and 1633.0-1635.5 m/z, which was generated post-acquisition via the Xcalibur™ software. […]
# GalT = biological target: T2, GalT; conditions: relative to Gal; cited from earlier work
# [1] = test system: O-GlcNAc pendant moiety on α-crystallin; experiment: Western / lectin blotting of α-crystallin with existing O-GlcNAc detection reagents; format: binding, bovine; conditions: blot, chemiluminescence, even when 10 μg of α-crystallin was used
# Description: α-Crystallin, and appropriate positive and negative controls were resolved by 15% SDS-PAGE. All Western blotting steps were performed at RT unless otherwise noted. […] RL-2 antibody, at a concentration of 1:2000, was subsequently added in blocking buffer and blots were incubated for 1.5-2 h. Blots were then rinsed with hsTBST and washed 6×5 min. Secondary goat anti-mouse IgG antibody was applied at a concentration of 1:10,000 in hsTBS-T containing 1% BSA. After 1 h, blots were rinsed and washed as described before chemiluminescence detection on film (FIG. 11A). Western blotting with the CTD110.6 antibody was performed according to manufacturer's recommendations. Briefly, α-crystallin and controls were transferred to PVDF and washed 2×15 min with TBS-0.1% tween-20 (TBST). Blots were blocked in TBST containing 3% BSA for 1 h, rinsed 2× with TBST, and probed with CTD110.6 (1:2500) in blocking buffer for 1 h. Blots were then rinsed 2× with TBST and washed 2×5 min. Secondary goat anti-mouse IgM antibody was applied at a concentration of 1:10,000 in blocking buffer for 1 h, and blots were subsequently rinsed with TBST and washed 5×5 min before chemiluminescence detection on film (FIG. 11B).
# WGA western blotting was performed essentially as described (25, 27). Briefly, α-crystallin and controls were resolved by 15% SDS-PAGE and electrophoretically transferred to nitrocellulose. […]
molecule,measurement,setting,value
Uridine 5′-diphospho-2-acetonyl-2deoxy-a-D-galactopyranose diammonium salt [Labeling agent 1],conversion of peptide to ketone-labeled product,Y289L GalT,Complete conversion
OCC1OC(O)CC(O)[C@H]1O (stereo partly drawn) [2-deoxy-Gal],rate of transfer by GalT,GalT,rates comparable to Gal
B1,detection of O-GlcNAc on α-crystallin,[1],failed to detect; also recorded: could not detect
